We go through 21 molecules from PubChem BioAssay (NCI).

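Grown in 96-well plates, cells were treated for 48 hours with each compound at five concentrations. Insufficient inhibition: endpoint recorded as highest concentration tested. GI50 is the concentration that inhibits growth by half. TGI denotes the concentration required for complete inhibition of growth.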 Some results are limits rather than exact numbers.

Test systems include A549 NSCLC; HCT-15 colon; HOP-18 NSCLC; M19-MEL melanoma; HCT-116 colon; DMS 273 small cell lung; OVCAR-5 ovarian; SR leukemia; XF 498 CNS.
Experiment in all cases: DTP human tumour cell line panel, 48 h

For orientation: TGI means the concentration at which net growth stops. Lower therefore signals more potent growth arrest. In the case of `Cc1cc(S(=O)(=O)O)c(NC(=O)C(=O)Cc2cc(=O)oc3cc(O)ccc23)cc1Cl`, the TGI in the test on A549 NSCLC, in the test with HCT-15 colon, in the test with HOP-18 NSCLC, with M19-MEL melanoma, in the test with HCT-116 colon and in the test on DMS 273 small cell lung was more than 100 µM throughout. The TGI in the test on OVCAR-5 ovarian and in the test on SR leukemia was more than 100 µM in each case.
For `O=S(=O)(c1ccccc1)C1CN2OC1(S(=O)(=O)c1ccccc1)CC2c1ccc(Br)cc1` (configuration not stated), the TGI with A549 NSCLC was more than 100 µM; in the test with HCT-15 colon it was more than 100 µM; with XF 498 CNS, 57.5 µM; in the test with M19-MEL melanoma, more than 100 µM; in the test on HCT-116 colon, more than 100 µM; in the test with DMS 273 small cell lung, more than 100 µM. The TGI in the test with OVCAR-5 ovarian was more than 100 µM.
Take `O=[N+]([O-])c1ccc(N2N=C(c3ccc(NCc4nc5ccccc5[nH]4)cc3)CC2c2ccco2)cc1` (configuration not stated): the TGI in the test on A549 NSCLC was more than 100 µM; with HCT-15 colon it was 84.9 µM; with HOP-18 NSCLC, more than 100 µM; in the test with M19-MEL melanoma, more than 100 µM; in the test on HCT-116 colon it was 57.3 µM; in the test with DMS 273 small cell lung, 51.8 µM. Besides, the TGI in the test with OVCAR-5 ovarian is more than 100 µM; with SR leukemia, 33.8 µM.
Turning to `Cc1cc(NS(=O)(=O)c2ccc(Nc3c4ccccc4nc4c(C(=O)N5CCN(CCO)CC5)ccc(Cl)c34)cc2)no1`, the TGI in the test with A549 NSCLC, in the test on HCT-15 colon, with XF 498 CNS, with M19-MEL melanoma, in the test with HCT-116 colon and in the test on DMS 273 small cell lung was more than 100 µM throughout. Also, in the test on OVCAR-5 ovarian, the TGI was more than 100 µM.
The GI50 is the concentration that inhibits growth by half. `COc1ccc(CCNC(=O)c2ccc(NC3=C(Cl)C(=O)N(Cc4ccccc4)C3=O)cc2)cc1OC`: the GI50 with A549 NSCLC was 33.1 µM; with HCT-15 colon it was 4100 nM; with HCT-116 colon it was 6040 nM; in the test on OVCAR-5 ovarian it was 16.9 µM; in the test on SR leukemia it was 1440 nM. Further, the TGI in the test with A549 NSCLC is more than 100 µM; in the test with HCT-15 colon it was more than 100 µM; with HCT-116 colon it was more than 100 µM; with OVCAR-5 ovarian it was 43.7 µM; with SR leukemia it was 3.15 µM.
With `c1ccc2nc3c(nc2c1)sc1ccccc13`, the TGI with A549 NSCLC, in the test on HCT-15 colon, in the test with HCT-116 colon, in the test with OVCAR-5 ovarian and in the test with SR leukemia was more than 100 µM each time.
Consider `C1=C\COCc2cc(ccc2OCCN2CCCC2)Nc2nccc(n2)-c2cccc(c2)COC/1`, for which the GI50 in the test with A549 NSCLC was 2.03 µM; in the test on HCT-15 colon it was 1260 nM; with HCT-116 colon, 1030 nM; in the test on OVCAR-5 ovarian it was 1.16 µM; with SR leukemia it was 306 nM. The TGI was 5.72 µM in the test with A549 NSCLC; 7.51 µM with HCT-15 colon; 4.07 µM with HCT-116 colon; 5.38 µM with OVCAR-5 ovarian; 1.62 µM in the test on SR leukemia.
On to `S=c1[nH]c(=S)c2nnn(-c3ccccc3)c2[nH]1`, for which the TGI in the test with A549 NSCLC is more than 100 µM; in the test with HCT-15 colon it was more than 100 µM; in the test with XF 498 CNS it was more than 100 µM; in the test on M19-MEL melanoma it was more than 100 µM; in the test with HCT-116 colon, 4.49 µM; in the test on DMS 273 small cell lung it was more than 100 µM. The TGI in the test with OVCAR-5 ovarian and with SR leukemia was more than 100 µM in each case.
As to `Cc1nc([N+](=O)[O-])cn1CC(=N)N`, the TGI with A549 NSCLC, with HCT-15 colon, with M19-MEL melanoma, in the test on HCT-116 colon, with DMS 273 small cell lung and with SR leukemia was more than 100 µM each time.
Take `N=C(N)c1ccc2nc(-c3cc(CC(=O)N[C@@H](CC(=O)O)C(=O)O)cc(-c4cc(S(N)(=O)=O)ccc4O)c3O)[nH]c2c1`: the GI50 in the test on A549 NSCLC was more than 100 µM; in the test on HCT-15 colon, more than 100000 nM; with HCT-116 colon, more than 100000 nM; with OVCAR-5 ovarian it was more than 100 µM; in the test on SR leukemia, more than 100000 nM. For the same molecule, the TGI in the test with A549 NSCLC, in the test on HCT-15 colon, in the test on HCT-116 colon, in the test with OVCAR-5 ovarian and with SR leukemia was more than 100 µM each time.
As for `CC(C)N(C(=O)C12C3C4C1(I)C1C2C3(I)C41C(=O)N(C(C)C)C(C)C)C(C)C` (configuration not stated), the TGI is more than 100 µM with A549 NSCLC; more than 59.8 µM in the test on HCT-15 colon; more than 100 µM with HOP-18 NSCLC; more than 100 µM in the test on XF 498 CNS; more than 70.9 µM in the test on M19-MEL melanoma; more than 100 µM in the test on HCT-116 colon. Besides, the TGI in the test with DMS 273 small cell lung and in the test on OVCAR-5 ovarian was more than 100 µM each time.
`Cc1cc(C)c(NC(=O)c2sc3nc4c(cc3c2N)CN(Cc2ccccc2)CC4)c(C)c1`: the GI50 with A549 NSCLC was 4.11 µM; with HCT-15 colon, 2120 nM; in the test on HCT-116 colon it was 2890 nM; in the test on OVCAR-5 ovarian, 12.5 µM; in the test with SR leukemia it was 1830 nM. Moreover, the TGI with A549 NSCLC was more than 100 µM; with HCT-15 colon, more than 100 µM; in the test with HCT-116 colon, 16 µM; in the test with OVCAR-5 ovarian it was more than 100 µM; in the test on SR leukemia, 10.7 µM.
For the molecule `COc1ccc(-c2ccc(-c3ccc(C(=N)N)s3)s2)cc1`, the GI50 is 0.195 µM with A549 NSCLC; 195 nM in the test on HCT-15 colon; 179 nM in the test on HCT-116 colon; 0.197 µM in the test with OVCAR-5 ovarian; 208 nM in the test on SR leukemia. The TGI is 0.393 µM with A549 NSCLC; 0.415 µM in the test on HCT-15 colon; 0.342 µM in the test on HCT-116 colon; 0.43 µM in the test on OVCAR-5 ovarian; 0.566 µM in the test on SR leukemia.
As to `CCCN1CN(C(C(=O)N[C@@H]2C(=O)N3C2SC(C)(C)C3C(=O)O)c2ccc(O)cc2)CSC1=S` (some centres not stated), the TGI in the test with HCT-15 colon, with HOP-18 NSCLC, in the test with XF 498 CNS, in the test with M19-MEL melanoma, with HCT-116 colon and in the test on DMS 273 small cell lung was more than 100 µM throughout. Besides, the TGI in the test on OVCAR-5 ovarian was more than 100 µM.
In the case of `CCCCCOc1ccc(/C=N/Nc2cc(C)nc3ccc(Br)cc23)cc1`, the GI50 with A549 NSCLC is 1.9 µM; in the test with HCT-15 colon, 1570 nM; in the test on HCT-116 colon, 1780 nM; in the test with OVCAR-5 ovarian it was 1.83 µM; with SR leukemia it was 448 nM. Also, the TGI in the test on A549 NSCLC was determined as 3.69 µM; with HCT-15 colon, 3.13 µM; in the test on HCT-116 colon it was 3.36 µM; in the test with OVCAR-5 ovarian it was 3.28 µM; in the test with SR leukemia, 2.15 µM.
Take `CC1=NC(=Cc2cc(Br)cc(Br)c2)C(=O)N1n1c(-c2ccccc2)nc2ccccc2c1=O`: the TGI in the test with A549 NSCLC, in the test on HCT-15 colon, with HCT-116 colon, in the test with OVCAR-5 ovarian and with SR leukemia was more than 100 µM in each case.
With `C=C1C(=O)O[C@H]2[C@H]1CC/C(COC(=O)/C=C\C(=O)NCc1ccc(Cn3c(=O)sn(CCCC)c3=O)cc1)=C\CC[C@@]1(C)O[C@@H]21`, the GI50 in the test with A549 NSCLC is 1.56 µM; in the test on HCT-15 colon, 202 nM; in the test on HCT-116 colon, 176 nM; in the test with OVCAR-5 ovarian, 1.33 µM; in the test on SR leukemia, 288 nM. Also, the TGI is 4.16 µM in the test on A549 NSCLC; 0.467 µM with HCT-15 colon; 0.491 µM in the test with HCT-116 colon; 2.75 µM in the test on OVCAR-5 ovarian; more than 100 µM in the test on SR leukemia.
Consider `N#CC1=C(N)Oc2cc(O)ccc2C1c1cccc2ccccc12` (configuration not stated), for which the GI50 was 7.02 µM in the test with A549 NSCLC; 8710 nM in the test with HCT-15 colon; 6520 nM with HCT-116 colon; 14.6 µM with OVCAR-5 ovarian; 3260 nM in the test on SR leukemia. The TGI was more than 100 µM with A549 NSCLC; 26.9 µM with HCT-15 colon; 25.7 µM with HCT-116 colon; 28.8 µM with OVCAR-5 ovarian; 14.8 µM in the test with SR leukemia.
`COc1ccc(O)c(C(=O)c2ccc(C(=O)N[C@H]3CCCNC[C@@H]3NC(=O)c3ccncc3)cc2)c1F`: the GI50 in the test on A549 NSCLC is 16.3 µM; in the test with HCT-15 colon it was more than 25000 nM; in the test on HCT-116 colon it was 12300 nM; with OVCAR-5 ovarian, more than 25 µM; with SR leukemia, 630 nM. Besides, the TGI is more than 25 µM in the test with A549 NSCLC; more than 25 µM in the test with HCT-15 colon; more than 25 µM with HCT-116 colon; more than 25 µM with OVCAR-5 ovarian; 12.7 µM with SR leukemia.
As to `O=C(CSC1CCc2ccccc21)N/N=C/c1ccccc1O` (configuration not stated), the GI50 was 4.81 µM in the test on A549 NSCLC; 2270 nM in the test on HCT-15 colon; 5010 nM with HCT-116 colon; 8.8 µM in the test with OVCAR-5 ovarian; 4030 nM with SR leukemia. For the same molecule, the TGI with A549 NSCLC was more than 100 µM; in the test with HCT-15 colon, more than 100 µM; in the test on HCT-116 colon it was 65.6 µM; in the test with OVCAR-5 ovarian, more than 100 µM; with SR leukemia, 34.4 µM.
Turning to `CC(=O)O[C@H]1CCC2[C@@H]3CCC4Nc5[nH]ncc5C[C@]4(C)C3CC[C@@]21C` (some centres not stated), the TGI in the test with A549 NSCLC was more than 100 µM; in the test on HCT-15 colon, more than 100 µM; with HOP-18 NSCLC it was more than 100 µM; with XF 498 CNS, 87 µM; with M19-MEL melanoma, more than 100 µM; in the test on HCT-116 colon, more than 100 µM. In addition, the TGI with DMS 273 small cell lung and in the test with OVCAR-5 ovarian was more than 100 µM each time.
